For the experiment, the target named is T1, human histamine H4 receptor (Homo sapiens, UniProt Q9H3N8).
T1 construct: expressed in transfected cells; host or cells: SK-N-MC cells or COS7 cells, transiently transfected with pH4R; cell membranes
The experiment in a line: Binding Assay on Recombinant Human Histamine H4 Receptor. As to conditions: competition binding vs 3H-histamine (5 nM, KD 5 nM), membranes of SK-N-MC or COS7 cells transfected with human H4R; Cheng-Prusoff; average of results obtained. As for the experimental part: Binding Assay on Recombinant Human Histamine H4 Receptor
SK-N-MC cells or COS7 cells were transiently transfected with pH4R and grown in 150 cm^2 tissue culture dishes. Cells were washed with saline solution, scraped with a cell scraper and collected by centrifugation (1000 rpm, 5 min). Cell membranes were prepared by homogenization of the cell pellet in 20 mM Tris-HCl with a polytron tissue homogenizer for 10 sec at high speed. Homogenate was centrifuged at 1000 rpm for 5 min at 4° C. The supernatant was then collected and centrifuged at 20,000×g for 25 min at 4° C. The final pellet was resuspended in 50 mM Tris-HCl. Cell membranes were incubated with ^3H-histamine (5-70 nM) in the presence or absence of excess histamine (10,000 nM). Incubation occurred at room temperature for 45 min. Membranes were harvested by rapid filtration over Whatman GF/C filters and washed 4 times with ice-cold 50 mM Tris HCl. Filters were then dried, mixed with scintillant and counted for radioactivity. SK-N-MC or COS7 cells expressing human histamine H4 receptor were used to measure the affinity of binding of other compounds and their ability to displace ^3H-ligand binding by incubating the above-described reaction in the presence of various concentrations of inhibitor or compound to be tested. For competition binding studies using ^3H-histamine, Ki values were calculated, based on an experimentally determined KD value of 5 nM and a ligand concentration of 5 nM, according to Y. C.

Molecules are shown by their SMILES. Some results are limits rather than exact numbers.

T1 sequence (Q9H3N8 whole entry): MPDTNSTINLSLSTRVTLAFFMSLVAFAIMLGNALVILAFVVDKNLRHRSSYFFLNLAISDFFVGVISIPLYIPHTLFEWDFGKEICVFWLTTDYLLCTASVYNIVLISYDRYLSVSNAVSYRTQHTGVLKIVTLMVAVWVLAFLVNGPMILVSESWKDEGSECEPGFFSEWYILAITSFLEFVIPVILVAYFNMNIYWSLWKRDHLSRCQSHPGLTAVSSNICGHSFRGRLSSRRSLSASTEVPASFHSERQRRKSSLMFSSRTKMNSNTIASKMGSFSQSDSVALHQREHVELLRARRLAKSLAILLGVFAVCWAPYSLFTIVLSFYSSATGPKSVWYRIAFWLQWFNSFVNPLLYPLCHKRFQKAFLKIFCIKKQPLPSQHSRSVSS

As for `Cc1ccsc1-c1ncnc(N2CCN(C)CC2)n1` [compound 136], the inhibitory constant (Ki) is 79 nM.

Consider `CN1CCN(c2ncnc(-c3cc(Cl)cs3)n2)CC1` [compound 151, 2-(4-Chloro-thiophen-2-yl)-4-(4-methyl-piperazin-1-yl)-[1,3,5]triazine], for which the inhibition constant (Ki) stood at 137 nM.

`CN1CCN(c2ccnc(-c3ccco3)c2)CC1` [compound 27]: the inhibition constant (Ki) was found to be 87 nM.

In the case of `CN1CCN(c2ncnc(-c3ccc(F)cc3)n2)CC1` [compound 12, 2-(4-Fluoro-phenyl)-4-(4-methyl-piperazin-1-yl)-[1,3,5]triazine], the inhibition constant (Ki) was determined as 35 nM.

As to `Cc1cc(-c2ncnc(N3CCN(C)CC3)n2)c(C(F)(F)F)o1` [compound 22, 2-(4-Methyl-piperazin-1-yl)-4-(5-methyl-2-trifluoromethyl-furan-3-yl)-[1,3,5]triazine], the inhibition constant Ki turned out to be 757 nM.

Regarding `CN1CCN(c2ccnc(-c3cccc(-c4ccc(C(=O)N5CCOCC5)cc4)c3)c2)CC1` [compound 63], the Ki was no less than 10000 nM.

Turning to `CN1CCN(c2ccnc(-c3ccc(F)c(Cl)c3)c2)CC1` [compound 30], the inhibitory constant (Ki) is 138 nM.

On to `CN1CCN(c2ncnc(-c3cccc(C#N)c3)n2)CC1` [compound 111, 3-[4-(4-Methyl-piperazin-1-yl)-[1,3,5]triazin-2-yl]-benzonitrile], for which the Ki was 2010 nM.

Regarding `CN1CCN(c2ncnc(-c3cccs3)n2)CC1` [compound 2, 2-(4-Methyl-piperazin-1-yl)-4-thiophen-2-yl-[1,3,5]triazine], the Ki turned out to be 76 nM.

With `Cc1ccc(-c2cc(N3CCN(C)CC3)ccn2)cc1F` [compound 31], the inhibition constant Ki was 75 nM.

On to `CN1CCN(c2ncnc(-c3ccc(Cl)cc3)n2)CC1` [compound 13, 2-(4-Chloro-phenyl)-4-(4-methyl-piperazin-1-yl)-[1,3,5]triazine], for which the inhibition constant (Ki) amounted to 10 nM.

Turning to `CN1CCN(c2ccnc(-c3ccc(-c4cccs4)s3)c2)CC1` [compound 145], the Ki came to 268 nM.

Take `CN1CCN(c2ncnc(-c3cccc(C(F)(F)F)c3)n2)CC1` [compound 8, 2-(4-Methyl-piperazin-1-yl)-4-(3-trifluoromethyl-phenyl)-[1,3,5]triazine]: the inhibition constant Ki amounted to 73 nM.

On to `CN1CCN(c2ncnc(-c3sccc3Br)n2)CC1` [compound 15, 2-(3-Bromo-thiophen-2-yl)-4-(4-methyl-piperazin-1-yl)-[1,3,5]triazine], for which the Ki worked out at 2 nM.

Turning to `Cc1ccc(F)cc1-c1ncnc(N2CCN(C)CC2)n1` [compound 123, 2-(5-Fluoro-2-methyl-phenyl)-4-(4-methyl-piperazin-1-yl)-[1,3,5]triazine], the Ki was 60 nM.

Take `CN1CCN(c2ncnc(-c3cccc(F)c3)n2)CC1` [compound 7, 2-(3-Fluoro-phenyl)-4-(4-methyl-piperazin-1-yl)-[1,3,5]triazine]: the inhibition constant (Ki) amounted to 87 nM.

What is called Ki is the dissociation constant of the complex between target and ligand, obtained from inhibition or displacement.

For the origin of these results see US8022209B2, “Substituted nitrogen-containing heteroaryl derivatives useful as modulators of the histamine H4 receptor” (Janssen Pharmaceutica NV, priority 2007, dated 2011).
